Where two headings read alike, the source gives them in different places.
Target: T1, mouse TMEM16A mutant V599A (Mus musculus, UniProt Q8BHY3, V599A)
T1 construct: expressed in transfected cells; host or cells: HEK293T
T1 sequence (Q8BHY3 1-960 V599A): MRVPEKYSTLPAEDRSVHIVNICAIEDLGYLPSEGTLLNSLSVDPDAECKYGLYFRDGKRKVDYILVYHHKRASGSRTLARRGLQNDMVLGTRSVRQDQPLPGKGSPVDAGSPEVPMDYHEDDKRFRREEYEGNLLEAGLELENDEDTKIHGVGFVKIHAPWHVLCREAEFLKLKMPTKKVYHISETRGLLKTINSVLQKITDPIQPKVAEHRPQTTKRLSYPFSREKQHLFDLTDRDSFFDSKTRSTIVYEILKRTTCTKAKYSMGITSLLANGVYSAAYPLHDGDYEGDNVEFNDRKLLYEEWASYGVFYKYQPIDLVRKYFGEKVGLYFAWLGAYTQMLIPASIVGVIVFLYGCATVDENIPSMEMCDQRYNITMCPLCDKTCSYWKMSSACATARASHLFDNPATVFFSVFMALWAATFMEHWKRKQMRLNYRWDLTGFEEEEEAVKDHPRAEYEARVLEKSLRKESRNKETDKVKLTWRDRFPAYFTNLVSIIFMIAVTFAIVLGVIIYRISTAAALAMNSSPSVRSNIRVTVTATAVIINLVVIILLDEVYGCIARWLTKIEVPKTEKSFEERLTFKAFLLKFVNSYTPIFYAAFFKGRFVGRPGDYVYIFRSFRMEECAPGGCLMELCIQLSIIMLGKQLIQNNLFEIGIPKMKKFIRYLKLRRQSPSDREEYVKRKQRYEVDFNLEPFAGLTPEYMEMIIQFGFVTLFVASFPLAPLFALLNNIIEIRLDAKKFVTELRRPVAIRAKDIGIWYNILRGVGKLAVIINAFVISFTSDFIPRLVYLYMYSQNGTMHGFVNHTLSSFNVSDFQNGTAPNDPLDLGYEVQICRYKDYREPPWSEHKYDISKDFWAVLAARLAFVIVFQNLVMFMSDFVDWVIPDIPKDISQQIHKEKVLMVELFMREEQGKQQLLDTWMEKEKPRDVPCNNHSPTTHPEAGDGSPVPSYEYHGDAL
Assay: Inside-out patch recording of 1PBC block, mutant V599A
Assay type: cell-based
Conditions: for remaining activity at 3 µM: 1PBC conc 3; for remaining activity at 3 µM / remaining activity at 10 µM / remaining activity at 30 µM / remaining activity at 100 µM: read-out: relative current in 1PBC (avr); for remaining activity at 10 µM: 1PBC conc 10; for remaining activity at 30 µM: 1PBC conc 30; for remaining activity at 100 µM: 1PBC conc 100
Procedure: HEK293T cells (ATCC CRL-1573) were maintained in Dulbecco’s modified Eagle’s medium (DMEM; Sigma-Aldrich) supplemented with 10 U ml^−1 penicillin, 0.1 mg ml^−1 streptomycin (Sigma-Aldrich), 2 mM L-glutamine (Sigma-Aldrich), and 10% FBS (Sigma-Aldrich) in a humidified atmosphere containing 5% CO2 at 37 °C. HEK293S GnTI^− cells (ATCC CRL-3022) were maintained in HyClone HyCell TransFx-H medium (GE Healthcare) supplemented with 10 U ml^−1 penicillin, 0.1 mg ml^−1 streptomycin, 4 mM L-glutamine, 0.15% poloxamer 188 (Sigma-Aldrich), and 1% FBS in an atmosphere containing 5% CO2 at 185 rpm at 37 °C. The ac splice variant of mouse TMEM16A (UniProt ID: Q8BHY3), mouse TMEM16B (UniProt ID: Q8CFW1), or mouse TMEM16F (UniProt ID: Q6P9J9) bearing a 3C cleavage site, a Venus YFP, a Myc tag, and a Streptavidin-binding peptide (SBP) downstream of the open reading frame in a modified pcDNA3.1 vector (Invitrogen) were used as described previously[21],[31]. Mutations were introduced using a modified QuikChange method[58] and were verified by sequencing.
HEK293T cells were transfected with 3–4 μg DNA per 6 cm Petri dish using the calcium phosphate co-precipitation method and were used within 24–96 h after transfection. Recordings were performed on inside-out patches excised from HEK293T cells expressing the construct of interest. Patch pipettes were pulled from borosilicate glass capillaries (O.D. 1.5 mm, I.D. 0.86 mm, Sutter Instrument) and were fire-polished with a microforge (Narishige) before use. Pipette resistance was typically 3–8 MΩ when filled with the recording solutions detailed below. Seal resistance was typically 4 GΩ or higher. Voltage-clamp recordings were made using Axopatch 200B, Digidata 1550, and Clampex 10.7 (Molecular Devices). Analog signals were filtered with the in-built 4-pole Bessel filter at 10 kHz and were digitized at 20 kHz. Solution exchange was achieved using a gravity-fed system through a theta glass pipette mounted on an ultra-fast piezo-driven stepper (Siskiyou). […] All recordings were performed at 20 °C.
A symmetrical ionic condition was used throughout. Stock solution with Ca^2+-EGTA contained 150 mM NaCl, 5.99 mM Ca(OH)2, 5 mM EGTA, and 10 mM HEPES at pH 7.40. Stock solution with EGTA contained 150 mM NaCl, 5 mM EGTA, and 10 mM HEPES at pH 7.40. Free Ca^2+ concentrations were adjusted by mixing the stock solutions at the required ratios calculated using the WEBMAXC program (http://web.stanford.edu/~cpatton/webmaxcS.htm). Patch pipettes were filled with the stock solution with Ca^2+-EGTA, which has a free Ca^2+ concentration of 1 mM. 1PBC (ChemBridge) stock was reconstituted in anhydrous DMSO (Sigma-Aldrich) at 100 mM and stored at −20 °C. Working solutions with 1PBC were prepared by serial dilution. Unless otherwise stated, experiments were performed at a saturating Ca^2+ concentration as shown in Supplementary Table 1 and the primary data were corrected for current rundown as described previously[21],[25].
Concentration-response relations, obtained from the ratio of the I-V plots before and after the application of the blocker, were fitted to the Hill equation,1 I/Imax=1/1+IC50/[blocker]^h where I/Imax is the normalized current responses, IC50 defines the concentration at which inhibition is at its half-maximum, and h is the Hill coefficient.

## N#Cc1c(C(F)(F)F)cc(O)n2c1nc1ccccc12 [1PBC]
-20 mV, 15 µM Ca2+
  IC50: 79.2 µM
-20 mV
  remaining activity at 3 µM: 93.7%
  remaining activity at 10 µM: 88.9%
  remaining activity at 30 µM: 74.6%
  remaining activity at 100 µM: 42.8%
-40 mV, 15 µM Ca2+
  IC50: 87.5 µM
-40 mV
  remaining activity at 3 µM: 93.7%
  remaining activity at 10 µM: 89.2%
  remaining activity at 30 µM: 76.8%
  remaining activity at 100 µM: 45.5%
-60 mV, 15 µM Ca2+
  IC50: 97.2 µM
-60 mV
  remaining activity at 3 µM: 94.2%
  remaining activity at 10 µM: 90.8%
  remaining activity at 30 µM: 77.7%
  remaining activity at 100 µM: 48.6%
-80 mV, 15 µM Ca2+
  IC50: 104 µM
-80 mV
  remaining activity at 3 µM: 94.9%
  remaining activity at 10 µM: 91.7%
  remaining activity at 30 µM: 78.1%
  remaining activity at 100 µM: 50.8%
-100 mV, 15 µM Ca2+
  IC50: 109 µM
-100 mV
  remaining activity at 3 µM: 94.9%
  remaining activity at 10 µM: 91.7%
  remaining activity at 30 µM: 78.5%
  remaining activity at 100 µM: 52.3%
-120 mV, 15 µM Ca2+
  IC50: 115 µM
-120 mV
  remaining activity at 3 µM: 95.9%
  remaining activity at 10 µM: 93.5%
  remaining activity at 30 µM: 79.4%
  remaining activity at 100 µM: 53.3%
-140 mV, 15 µM Ca2+
  IC50: 119 µM
-140 mV
  remaining activity at 3 µM: 96%
  remaining activity at 10 µM: 93.2%
  remaining activity at 30 µM: 79.3%
  remaining activity at 100 µM: 54.7%
V599A, V 0 mV
  IC50: 69.5 µM
V599A, V 20 mV
  IC50: 61.3 µM
V599A, V 40 mV
  IC50: 55.5 µM
V599A, V 60 mV
  IC50: 48.9 µM
V599A, V 80 mV
  IC50: 45.8 µM
V599A, V 100 mV
  IC50: 45 µM
V599A, V 120 mV
  IC50: 45.1 µM
V599A, V 140 mV
  IC50: 48.5 µM
V599A, V -20 mV
  IC50: 79.2 µM
V599A, V -40 mV
  IC50: 87.5 µM
V599A, V -60 mV
  IC50: 97.2 µM
V599A, V -80 mV
  IC50: 104 µM
V599A, V -100 mV
  IC50: 109 µM
V599A, V -120 mV
  IC50: 115 µM
V599A, V -140 mV
  IC50: 119 µM

— article PMC9120017, “Inhibition mechanism of the chloride channel TMEM16A by the pore blocker 1PBC” (Nature Communications, 2022)
